# Measured values: patent publication EP1900728A1 (Genecare Research Institute Co., Ltd, priority 2005, dated 2006)
# Where two headings read alike, the source gives them in different places.
# Columns and labels:
# [1] = test system: ICAM-1 expression in HT-29 cells; assay: Measurement of ICAM-1 expressing activity (TNFα-induced ICAM-1 expression, cell ELISA); format: cell-based; settings: Homo sapiens, Table 6, cell activity inhibition test by method (3), read-out: EVALUATION (IC50 class, inhibition of cell activity)
# Experimental: Method 2: Measurement of ICAM-1 expressing activity
# 2.0 x 10^4 HT-29 cells (ATCC) were plated onto a 96-well plate, and the cells were cultured for 48 hours using a McCoy' 5A medium (GIBCO) containing 10% inactivated fetal calf serum. The culture medium was removed, a culture medium containing a compound to be evaluated (final DMSO concentration of 0.5%) was added, and this was incubated at 37°C for 30 minutes. Thirty ng/mL of human TNFα (GIBCO) was added, and this was incubated at 37°C for 4 hours. After washing once with a washing solution (PBS containing 0.05% Tween 20), ice-cooled methanol was added, and this was left on ice for 10 minutes and then fixed. After removing methanol, PBS containing 1% BSA was added, and blocking was performed by letting this stand at room temperature for 30 minutes. Anti-ICAM-1 antibody (Santa Cruz Biotechnology) was added, and this was left to stand at room temperature for 1 hour. After washing with the washing solution, POD-labeled secondary antibody was added, and this was left to stand at room temperature for 30 minutes. This was washed, 100 µL of 100 mM citric acid buffer (pH4.2) containing 1 mM TMBZ and 0.03% H2O2 was added, and this was reacted at room temperature for 15 minutes. The reaction was terminated with 100 µL of 2 N H2SO4, and the absorbance at 450 nm was measured using ARVO-HTS (Perkin Elmer).
# When cells are stimulated with TNFα, IκBα is degraded after ubiquitination resulting in the activation of NFκB and the promotion of the expression of adhesion factor ICAM-1. Therefore, the suppression of ICAM-1 expression described above serves as an indicator to determine the effectiveness of the compound in the cells.
# [2] = target: T1, IκBα ubiquitinating enzyme (SCF complex: ROC1, Cullin1, Skp1, His-TrCP1; with E1, UbcH5b) (Homo sapiens, UniProt P62877+P63208+Q13616+Q9Y297); assay: Measurement of ubiquitinating enzyme activity (IκBα ubiquitination, time-resolved fluorescence with Eu(K)-labeled ubiquitin and XL665-labeled anti-GST antibody); format: biochemical
# T1 construct: His (polyhistidine); made in house; host or cells: insect cells (baculovirus) for the SCF complex and His-E1; E. coli for His-UBCH5b
# In short: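 Human SCF complex with E1 and UbcH5b ubiquitinated GST-IκBα pre-phosphorylated by IKKβ (2 mM ATP, pH 7.4, 1 h, RT), with Eu(K)-ubiquitin, 30 min RT. Stopped with EDTA, XL665 anti-GST added for 2 h; 665/620 nm TR-FRET ratio. % inhibition versus no-compound control and no-SCF blank gave IC50.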
# [3] = enzyme activity inhibition test, method (1), Table 5, read-out: EVALUATION
# [4] = read-out: EVALUATION, enzyme activity inhibition test, method (1), Table 5
# T1 sequence (Q9Y297 whole entry): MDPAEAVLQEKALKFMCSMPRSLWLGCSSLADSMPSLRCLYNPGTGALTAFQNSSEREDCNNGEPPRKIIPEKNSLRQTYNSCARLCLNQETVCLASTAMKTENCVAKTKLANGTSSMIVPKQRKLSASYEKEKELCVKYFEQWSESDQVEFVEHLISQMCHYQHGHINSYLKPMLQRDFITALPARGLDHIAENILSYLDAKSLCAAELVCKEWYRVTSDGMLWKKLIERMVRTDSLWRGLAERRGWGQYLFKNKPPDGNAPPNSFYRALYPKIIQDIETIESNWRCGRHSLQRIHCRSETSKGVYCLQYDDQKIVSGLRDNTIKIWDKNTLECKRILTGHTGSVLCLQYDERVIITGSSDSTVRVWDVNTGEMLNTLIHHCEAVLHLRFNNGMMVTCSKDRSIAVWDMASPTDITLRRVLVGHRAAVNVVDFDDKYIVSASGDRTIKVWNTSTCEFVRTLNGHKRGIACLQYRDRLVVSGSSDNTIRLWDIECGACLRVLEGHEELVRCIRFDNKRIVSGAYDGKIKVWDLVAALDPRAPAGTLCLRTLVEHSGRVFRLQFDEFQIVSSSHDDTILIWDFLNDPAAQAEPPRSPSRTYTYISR
# T1 sequence (Q13616 whole entry): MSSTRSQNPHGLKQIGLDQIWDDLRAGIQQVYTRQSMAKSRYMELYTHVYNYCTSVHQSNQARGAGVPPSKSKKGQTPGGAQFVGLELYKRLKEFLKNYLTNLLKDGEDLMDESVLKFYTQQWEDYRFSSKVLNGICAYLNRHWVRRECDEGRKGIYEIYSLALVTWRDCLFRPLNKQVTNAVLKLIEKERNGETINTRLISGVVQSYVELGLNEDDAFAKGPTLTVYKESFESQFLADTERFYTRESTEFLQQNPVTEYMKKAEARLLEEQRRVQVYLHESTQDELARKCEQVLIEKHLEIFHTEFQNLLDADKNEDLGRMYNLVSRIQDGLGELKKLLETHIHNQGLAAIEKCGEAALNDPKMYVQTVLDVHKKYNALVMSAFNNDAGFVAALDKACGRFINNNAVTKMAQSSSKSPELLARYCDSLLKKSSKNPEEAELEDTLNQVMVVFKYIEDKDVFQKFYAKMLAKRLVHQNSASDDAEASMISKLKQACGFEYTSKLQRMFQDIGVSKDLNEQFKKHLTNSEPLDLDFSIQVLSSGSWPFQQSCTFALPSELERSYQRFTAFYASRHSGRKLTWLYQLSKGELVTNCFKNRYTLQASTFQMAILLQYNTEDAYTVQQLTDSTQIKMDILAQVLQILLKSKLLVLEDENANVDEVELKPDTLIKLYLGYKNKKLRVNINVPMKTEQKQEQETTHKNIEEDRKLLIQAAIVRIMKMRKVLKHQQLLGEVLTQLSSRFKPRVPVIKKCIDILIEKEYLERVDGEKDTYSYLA
# T1 sequence (P63208 whole entry): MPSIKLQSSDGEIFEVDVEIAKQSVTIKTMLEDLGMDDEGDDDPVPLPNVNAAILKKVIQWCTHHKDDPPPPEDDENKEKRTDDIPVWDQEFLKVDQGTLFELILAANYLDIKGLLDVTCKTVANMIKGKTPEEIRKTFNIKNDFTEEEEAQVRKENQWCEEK
# T1 sequence (P62877 whole entry): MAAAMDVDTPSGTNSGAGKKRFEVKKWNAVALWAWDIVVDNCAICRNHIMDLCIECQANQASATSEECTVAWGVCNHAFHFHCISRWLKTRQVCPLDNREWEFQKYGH
SMILES,IC50 [1] [µM],"IC50 [2, 3] [µM]",IC50 [2] [µM],"IC50 [2, 4] [µM]"
CC1=NN(c2ccc(C(=O)O)cc2)C(=O)/C1=C\c1cccc(O)c1 [Compound 542],< 40,< 10,,
COc1cc(/C=C2\C(=O)N(c3ccccc3)N=C2C)ccc1OCC(=O)OC(C)(C)C [Compound 125],< 40,10 to 20,,
CCCCC1=NN(c2ccccc2)C(=O)/C1=C\c1ccc(N2CCN(C(=O)OC)CC2)cc1 [Compound 54],< 40,10 to 20,,
O=C(O)c1ccc(N2N=C(C3CC3)/C(=C/c3ccc(CO)o3)C2=O)cc1 [Compound 316],< 10,< 10,,
O=C(O)c1ccc(N2N=C(c3ccoc3)/C(=C/c3ccc4[nH]ccc4c3)C2=O)cc1 [Compound 477],< 40,< 10,,
COC(=O)N1CCN(c2ccc(/C=C3\C(=O)N(c4ccc(C(=O)O)cc4)N=C3c3ccc(OC)c(OC)c3)cc2)CC1 [Compound 279],10 to 20,< 10,,
COc1cc(/C=C2\C(=O)N(c3ccc(C(=O)O)cc3)N=C2C)ccc1OCc1c(C)noc1C [Compound 391],10 to 20,< 10,,
COc1cc(/C=C2\C(=O)N(Cc3cccc(O)c3)N=C2C)ccc1O [Compound 128],< 10,10 to 20,,
CCCCC1=NN(c2ccccc2)C(=O)C1=Cc1ccc(-n2cccn2)cc1 [Compound 58],< 40,,< 10,
COc1cc(/C=C2\C(=O)N(c3cccc(C(=O)O)c3)N=C2C)ccc1OCC1CCCCC1 [Compound 407],< 40,10 to 20,,
CC1=NN(c2ccc(C(=O)N(C)CCO)cc2)C(=O)/C1=C\c1ccc2c(c1)OCCO2 [Compound 412],10 to 20,10 to 20,,
O=C1/C(=C\c2ccc(CO)o2)C(c2ccoc2)=NN1c1ccccc1 [Compound 16],10 to 20,< 10,,
CCCCC1=NN(c2ccc(C(=O)O)cc2)C(=O)/C1=C\c1ccc(N2CCCC2)cc1 [Compound 301],< 10,10 to 20,,
CCCNC(=O)COc1ccc(C=C2C(=O)N(c3ccccc3)N=C2C)cc1 [Compound 204],10 to 20,,10 to 20,
CC1=NN(c2ccc(C(=O)N3CCC(O)C3)cc2)C(=O)/C1=C\c1ccc2c(c1)OCCO2 (centres unmarked) [Compound 413],10 to 20,< 10,,
CC1=NN(c2ccc(C(=O)N3CCCC3CO)cc2)C(=O)/C1=C\c1ccc2c(c1)OCCO2 (centres unmarked) [Compound 410],10 to 20,< 10,,
COCC1=NN(c2ccc(C(=O)O)cc2)C(=O)/C1=C\c1ccc(-n2ccnc2)cc1 [Compound 238],< 40,< 10,,
CC1=NN(c2ccc(S(N)(=O)=O)cc2)C(=O)C1=Cc1ccc(N2CCN(C(=O)OC(C)(C)C)CC2)cc1 [Compound 179],< 40,,10 to 20,
COC(=O)N1CCN(c2ccc(/C=C3\C(=O)N(c4ccccc4)N=C3c3ccoc3)cc2)CC1 [Compound 14],< 40,< 10,,
CC1=NN(c2ccc(C(=O)O)cc2)C(=O)/C1=C\c1ccc2c(c1)OCCO2 [Compound 259],< 10,< 10,,
COCC1=NN(c2ccc(C(=O)O)cc2)C(=O)/C1=C\c1ccc2c(c1)OCCO2 [Compound 239],< 10,< 10,,
COc1ccc(C2=NN(c3ccc(C(=O)O)cc3)C(=O)/C2=C\c2ccc(N3CCCC3)cc2)cc1OC [Compound 281],10 to 20,< 10,,
"O=C(O)c1cccc(N2N=C(c3ccoc3)C(=Cc3ccc4[nH]ccc4c3)C2=O)c1 [Compound 475, 3-(3-Furan-3-yl-4-(1H-indol-ylmethylene)-5-oxo-4,5-dihydropyrazol-1-yl) benzoic acid]",10 to 20,,,< 10
O=C(O)c1ccc(N2N=C(c3ccoc3)/C(=C/c3ccc(N4CCCC4)cc3)C2=O)cc1 [Compound 248],10 to 20,< 10,,
CCCCC1=NN(c2ccc(C(=O)O)cc2)C(=O)/C1=C\c1ccc(-n2ccnc2)cc1 [Compound 302],10 to 20,< 10,,
CCCCC1=NN(c2ccc(C(=O)O)cc2)C(=O)/C1=C\c1ccc(-n2cccn2)cc1 [Compound 305],10 to 20,< 10,,
CCCCC1=NN(c2ccc(C(=O)O)cc2)C(=O)/C1=C\c1ccc(N2CCC(CO)CC2)cc1 [Compound 443],10 to 20,< 10,,
CC(C)=CC(=O)Nc1ccc(C=C2C(=O)N(c3ccc(S(N)(=O)=O)cc3)N=C2C)cc1 [Compound 232],< 40,,10 to 20,

SMILES,IC50 [1] [µM],"IC50 [2, 3] [µM]",IC50 [2] [µM],"IC50 [2, 4] [µM]"
Cn1cc(-c2ccc(/C=C3\C(=O)N(c4ccc(C(=O)O)cc4)N=C3c3ccoc3)o2)cn1 [Compound 489],< 10,< 10,,
CC1=NN(c2ccc(C(=O)O)cc2)C(=O)/C1=C\c1ccc2c(ccn2C(=O)c2ccccc2)c1 [Compound 528],< 40,< 10,,
COc1ccccc1-c1ccc(/C=C2\C(=O)N(c3cccc(C(=O)O)c3)N=C2c2ccoc2)o1 [Compound 485],< 40,< 10,,
CCCCC1=NN(c2ccc(C(=O)O)cc2)C(=O)/C1=C\c1ccc(CO)o1 [Compound 300],10 to 20,< 10,,
COC(=O)N1CCN(c2ccc(C=C3C(=O)N(c4ccc(C(=O)O)cc4)N=C3c3ccoc3)cc2)CC1 [Compound 245],10 to 20,,< 10,
O=C(O)c1ccc(N2N=C(c3ccccn3)/C(=C/c3ccc(N4CCCC4)cc3)C2=O)cc1 [Compound 291],10 to 20,10 to 20,,
COc1cc(/C=C2\C(=O)N(c3ccc(C(=O)O)cc3)N=C2C)ccc1OCC(=O)OC(C)(C)C [Compound 346],10 to 20,< 10,,
CC1=NN(c2ccc(S(N)(=O)=O)cc2)C(=O)/C1=C\c1ccc(F)cc1 [Compound 118],10 to 20,10 to 20,,
CC1=NN(c2ccccc2)C(=O)/C1=C\c1ccc2[nH]ccc2c1 [Compound 127],< 40,< 10,,
COc1cc(/C=C2\C(=O)N(c3ccccc3)N=C2c2ccoc2)ccc1OCc1ccccc1 [Compound 94],< 40,< 10,,
CCOC(=O)c1ccccc1-c1ccc(/C=C2\C(=O)N(c3ccc(C(=O)O)cc3)N=C2C)o1 [Compound 527],< 10,< 10,,
CC1=NN(c2ccc(C(=O)O)cc2)C(=O)/C1=C\c1cc2ccccc2o1 [Compound 429],< 40,< 10,,
COc1cc(/C=C2\C(=O)N(c3ccc(C(=O)O)cc3)N=C2c2ccccn2)ccc1OCc1ccccc1 [Compound 289],,10 to 20,,
CC1=NN(c2cccc(S(N)(=O)=O)c2)C(=O)/C1=C\c1ccc2cc[nH]c2c1 [Compound 149],,< 10,,
COc1cc(/C=C2\C(=O)N(c3ccccc3)N=C2C2CC2)ccc1OCc1ccccc1 [Compound 71],,< 10,,
CC1=NN(c2ccc(S(N)(=O)=O)cc2)C(=O)/C1=C\c1ccc(OCC(=O)N(C)C)cc1 [Compound 209],,10 to 20,,
CC1=NN(c2cccc(C(=O)O)c2)C(=O)C1=Cc1ccc(-c2cnn(C)c2)o1 [Compound 495],,,,10 to 20
O=C1/C(=C\c2ccc(-n3cccn3)cc2)C(C2CC2)=NN1c1ccccc1 [Compound 79],,< 40,,
COCC1=NN(c2ccccc2)C(=O)/C1=C\c1ccc(CO)o1 [Compound 7],,< 40,,
CC1=NN(c2cccc(C(=O)O)c2)C(=O)/C1=C\c1ccoc1 [Compound 418],,10 to 20,,
CCCCC1=NN(c2ccc(C(=O)O)cc2)C(=O)/C1=C\c1ccc2ccccc2c1 [Compound 336],,10 to 20,,
CC1=NN(c2ccc(C(=O)N3CCCCC3)cc2)C(=O)/C1=C\c1ccc2[nH]ccc2c1 [Compound 358],,< 10,,
CC1=NN(c2ccc(S(N)(=O)=O)cc2)C(=O)/C1=C\c1ccc(N2CCN(c3ccc(F)cc3)CC2)cc1 [Compound 176],,< 10,,
CC1=NN(c2ccc(S(N)(=O)=O)cc2)C(=O)C1=Cc1cccc2cc[nH]c12 [Compound 151],,< 10,,
COCCC1=NN(c2cccc(C(=O)O)c2)C(=O)/C1=C\c1ccc(-c2ccccc2F)o1 [Compound 526],,< 40,,
CCCCC1=NN(c2ccccc2)C(=O)/C1=C\c1ccc(OCc2ccccc2)c(OC)c1 [Compound 52],,< 40,,
CC1=NN(c2cccc(C(=O)N(C)CCO)c2)C(=O)/C1=C\c1ccc2c(c1)OCCO2 [Compound 414],,10 to 20,,
